Results taken from patent publication US20080009418A1, “Selective Inhibitors” (Alchemia LTD., priority 2004, published 2008).

Experiments:
Human μ-opioid (MOP) = target: T1, Human μ-opioid (MOP) (Homo sapiens, UniProt P35372); assay: Radioligand binding, human μ-opioid (MOP) membranes, FlashPlate, [3H]-Naloxone; settings: compound at 10 μM, [3H]-Naloxone
T1 construct: purchased Perkin Elmer Biosignal
In short: (§1)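 Cloned human receptor membranes were coated onto FlashPlate wells and incubated with radioligand and compound (added from a 0.5 mM DMSO daughter plate) for 1 hour at room temperature in the dark. Scintillation counting gave percent inhibition, with DMSO defining total and reference ligand defining non-specific binding.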

[1] = target: T2, Human neuropeptide Y (NPY-Y1) (Homo sapiens, UniProt P25929); assay: Radioligand binding, human neuropeptide Y NPY-Y1 membranes, FlashPlate, [125I]-PYY; settings: compound at 10 μM, [125I]-PYY
T2 construct: purchased Perkin Elmer Biosignal
T2 sequence (P25929 1-384): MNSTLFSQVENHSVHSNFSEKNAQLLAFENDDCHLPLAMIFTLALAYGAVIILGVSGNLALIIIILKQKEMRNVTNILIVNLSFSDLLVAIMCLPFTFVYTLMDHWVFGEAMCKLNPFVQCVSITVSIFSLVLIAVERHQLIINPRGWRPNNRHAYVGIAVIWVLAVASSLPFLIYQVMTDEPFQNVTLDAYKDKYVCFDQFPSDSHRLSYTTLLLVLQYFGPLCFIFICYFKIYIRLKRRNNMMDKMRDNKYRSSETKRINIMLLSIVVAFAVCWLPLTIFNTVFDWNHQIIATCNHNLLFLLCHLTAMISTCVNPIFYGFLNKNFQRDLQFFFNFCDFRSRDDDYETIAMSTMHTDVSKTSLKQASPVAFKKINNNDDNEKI
In short: as §1

Human opioid (ORL1) = target: T3, Human opioid (ORL1) (Homo sapiens, UniProt P41146); assay: Radioligand binding, human opioid ORL1 membranes, FlashPlate, [125I]-Nociceptin; settings: compound at 10 μM, [125I]-Nociceptin
T3 construct: purchased Perkin Elmer Biosignal
T3 sequence (P41146 whole entry): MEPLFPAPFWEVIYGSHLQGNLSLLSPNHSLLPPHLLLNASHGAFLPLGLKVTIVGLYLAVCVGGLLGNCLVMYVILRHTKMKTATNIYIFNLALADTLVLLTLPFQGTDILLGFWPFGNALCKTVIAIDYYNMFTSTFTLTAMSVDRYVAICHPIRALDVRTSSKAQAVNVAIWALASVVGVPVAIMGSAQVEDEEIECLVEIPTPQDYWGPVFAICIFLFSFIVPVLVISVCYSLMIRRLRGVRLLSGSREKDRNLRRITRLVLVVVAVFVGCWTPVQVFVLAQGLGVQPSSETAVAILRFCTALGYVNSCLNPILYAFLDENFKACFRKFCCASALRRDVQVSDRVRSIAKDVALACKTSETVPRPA
In short: as §1

[2] = target: T4, Human melanin-concentrating hormone (MCH1) (Homo sapiens, UniProt Q99705); assay: Radioligand binding, human melanin-concentrating hormone MCH1 membranes, FlashPlate, [125I]-S36057; settings: compound at 10 μM
T4 construct: purchased Perkin Elmer Biosignal
T4 sequence (Q99705 whole entry): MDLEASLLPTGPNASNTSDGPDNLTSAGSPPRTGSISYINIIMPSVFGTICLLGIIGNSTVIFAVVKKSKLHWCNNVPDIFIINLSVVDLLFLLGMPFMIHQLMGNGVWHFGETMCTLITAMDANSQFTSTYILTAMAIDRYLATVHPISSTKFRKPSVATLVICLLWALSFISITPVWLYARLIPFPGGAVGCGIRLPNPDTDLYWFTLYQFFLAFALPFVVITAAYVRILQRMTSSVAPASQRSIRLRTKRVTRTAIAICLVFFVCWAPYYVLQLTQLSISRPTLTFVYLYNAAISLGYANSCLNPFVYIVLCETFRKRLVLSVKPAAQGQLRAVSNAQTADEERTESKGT
In short: as §1

Human κ-Opioid (KOP) = target: T5, Human κ-Opioid (KOP) (Homo sapiens, UniProt P41145); assay: Radioligand binding, human κ-opioid (KOP) membranes, filtration, [3H]-Diprenorphine; settings: compound at 10 μM, [3H]-Diprenorphine
T5 construct: purchased Perkin Elmer Biosignal
T5 sequence (P41145 whole entry): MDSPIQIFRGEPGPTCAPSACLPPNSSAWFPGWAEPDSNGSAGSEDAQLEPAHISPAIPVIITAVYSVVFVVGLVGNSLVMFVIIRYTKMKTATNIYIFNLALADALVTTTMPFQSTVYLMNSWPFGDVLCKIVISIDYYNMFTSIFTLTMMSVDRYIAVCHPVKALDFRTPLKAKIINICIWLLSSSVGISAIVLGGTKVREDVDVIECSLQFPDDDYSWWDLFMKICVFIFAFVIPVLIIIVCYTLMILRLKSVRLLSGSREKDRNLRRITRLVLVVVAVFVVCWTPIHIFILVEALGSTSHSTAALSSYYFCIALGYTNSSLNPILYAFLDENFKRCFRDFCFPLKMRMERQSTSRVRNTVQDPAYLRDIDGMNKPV
In short: (§2)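 Filtration binding on cloned human receptor membranes (1 Unit/well), [125I]-Substance P for NK1 and [3H]-Diprenorphine for KOP, 1 h at room temperature. Filters PEI-presoaked, washed with cold 50 mM Tris-HCl pH 7.4, counted by scintillation; percent inhibition calculated, reference ligand defining non-specific binding.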

Human melanocortin (MC5) = target: T6, Human melanocortin (MC5) (Homo sapiens, UniProt P33032); assay: Radioligand binding, human melanocortin MC5 membranes, FlashPlate, [125I]-NDP-αMSH; settings: compound at 10 μM, [125I]-NDP-αMSH
T6 construct: purchased Perkin Elmer Biosignal
T6 sequence (P33032 whole entry): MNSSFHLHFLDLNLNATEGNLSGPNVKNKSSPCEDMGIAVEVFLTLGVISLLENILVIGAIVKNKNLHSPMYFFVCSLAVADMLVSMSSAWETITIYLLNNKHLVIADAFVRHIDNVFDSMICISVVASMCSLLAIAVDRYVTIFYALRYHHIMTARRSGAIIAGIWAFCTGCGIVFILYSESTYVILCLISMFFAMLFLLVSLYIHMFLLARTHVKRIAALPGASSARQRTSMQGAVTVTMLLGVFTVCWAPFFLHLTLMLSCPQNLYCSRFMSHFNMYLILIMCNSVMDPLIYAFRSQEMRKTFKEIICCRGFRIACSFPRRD
In short: as §1

Human neurokinin (NK1) = target: T7, Human neurokinin (NK1) (Homo sapiens, UniProt P25103); assay: Radioligand binding, human neurokinin NK1 membranes, filtration, [125I]-Substance P; settings: compound at 10 μM, [125I]-Substance P
T7 construct: purchased Perkin Elmer Biosignal
T7 sequence (P25103 whole entry): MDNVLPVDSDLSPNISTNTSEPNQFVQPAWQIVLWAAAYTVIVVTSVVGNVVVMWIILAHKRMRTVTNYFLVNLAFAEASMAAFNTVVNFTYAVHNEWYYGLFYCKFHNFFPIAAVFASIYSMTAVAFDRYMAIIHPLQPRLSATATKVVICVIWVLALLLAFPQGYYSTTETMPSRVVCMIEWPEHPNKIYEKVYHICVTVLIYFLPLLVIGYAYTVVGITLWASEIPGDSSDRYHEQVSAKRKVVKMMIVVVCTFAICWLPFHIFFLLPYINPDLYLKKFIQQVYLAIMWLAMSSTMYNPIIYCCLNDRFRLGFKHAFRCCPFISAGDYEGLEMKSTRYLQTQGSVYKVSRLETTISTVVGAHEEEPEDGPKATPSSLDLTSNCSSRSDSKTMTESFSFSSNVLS
In short: as §2

Human Melanocortin (MC4) = target: T8, Human Melanocortin (MC4) (Homo sapiens, UniProt P32245); assay: Radioligand binding, human melanocortin MC4 membranes, FlashPlate, [125I]-NDP-αMSH; settings: compound at 10 μM, [125I]-NDP-αMSH
T8 construct: purchased Perkin Elmer Biosignal
T8 sequence (P32245 whole entry): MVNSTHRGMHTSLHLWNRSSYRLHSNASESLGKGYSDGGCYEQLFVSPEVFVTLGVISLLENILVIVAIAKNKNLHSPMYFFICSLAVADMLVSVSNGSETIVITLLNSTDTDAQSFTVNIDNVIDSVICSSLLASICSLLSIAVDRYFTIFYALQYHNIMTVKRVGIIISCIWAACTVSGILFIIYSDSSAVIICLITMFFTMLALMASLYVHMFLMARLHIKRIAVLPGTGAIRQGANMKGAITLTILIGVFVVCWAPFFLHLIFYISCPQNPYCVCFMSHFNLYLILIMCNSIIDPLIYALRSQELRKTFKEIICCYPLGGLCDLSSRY
In short: as §1

Human Melanocortin (MC3) = target: T9, Human Melanocortin (MC3) (Homo sapiens, UniProt P41968); assay: Radioligand binding, human melanocortin MC3 membranes, FlashPlate, [125I]-NDP-αMSH; settings: compound at 10 μM, [125I]-NDP-αMSH
T9 construct: purchased Perkin Elmer Biosignal
T9 sequence (P41968 whole entry): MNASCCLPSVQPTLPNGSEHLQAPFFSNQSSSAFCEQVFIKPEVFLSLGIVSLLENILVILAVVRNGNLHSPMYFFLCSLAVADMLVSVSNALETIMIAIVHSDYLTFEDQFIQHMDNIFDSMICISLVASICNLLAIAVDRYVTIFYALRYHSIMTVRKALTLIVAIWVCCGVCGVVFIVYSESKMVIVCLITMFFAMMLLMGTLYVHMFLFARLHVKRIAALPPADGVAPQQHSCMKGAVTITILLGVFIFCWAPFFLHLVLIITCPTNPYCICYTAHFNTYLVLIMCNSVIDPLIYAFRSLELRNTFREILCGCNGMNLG
In short: as §1

Human δ-opioid (DOP) = target: T10, Human δ-opioid (DOP) (Homo sapiens, UniProt P41143); assay: Radioligand binding, human δ-opioid (DOP) membranes, FlashPlate, [3H]-Bremazocine; settings: compound at 10 μM, [3H]-Bremazocine
T10 construct: purchased Perkin Elmer Biosignal
T10 sequence (P41143 whole entry): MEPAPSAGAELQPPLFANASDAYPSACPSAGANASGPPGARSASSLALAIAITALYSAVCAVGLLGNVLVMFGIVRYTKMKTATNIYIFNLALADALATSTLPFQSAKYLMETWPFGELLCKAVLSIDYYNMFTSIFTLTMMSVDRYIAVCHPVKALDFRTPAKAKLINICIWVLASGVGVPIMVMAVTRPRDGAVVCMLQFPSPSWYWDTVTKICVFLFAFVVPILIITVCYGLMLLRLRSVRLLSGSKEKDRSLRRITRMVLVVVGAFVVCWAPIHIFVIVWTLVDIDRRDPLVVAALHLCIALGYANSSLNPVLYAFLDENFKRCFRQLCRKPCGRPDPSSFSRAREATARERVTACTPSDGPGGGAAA
In short: as §1

Mouse urotensin (mUR2) = target: T11, Mouse urotensin (mUR2) (Mus musculus, UniProt Q8VIH9); assay: Radioligand binding, mouse urotensin mUR2 membranes, FlashPlate, [125I]-Urotensin II; settings: compound at 10 μM, [125I]-Urotensin II
T11 construct: purchased Perkin Elmer Biosignal
T11 sequence (Q8VIH9 1-385): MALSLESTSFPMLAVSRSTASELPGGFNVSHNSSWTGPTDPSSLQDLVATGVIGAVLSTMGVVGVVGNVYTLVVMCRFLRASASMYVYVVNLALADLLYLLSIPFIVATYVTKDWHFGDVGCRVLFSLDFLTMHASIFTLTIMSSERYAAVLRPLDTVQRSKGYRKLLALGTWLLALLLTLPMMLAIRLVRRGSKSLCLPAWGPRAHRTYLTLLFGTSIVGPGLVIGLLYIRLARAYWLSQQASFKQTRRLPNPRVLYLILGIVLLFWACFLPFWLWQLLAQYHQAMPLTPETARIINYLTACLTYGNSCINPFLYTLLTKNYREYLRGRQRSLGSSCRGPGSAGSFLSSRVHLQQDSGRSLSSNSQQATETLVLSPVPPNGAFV
In short: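 Cloned mouse urotensin (mUR2) receptor membranes from Perkin Elmer Biosignal were immobilized in FlashPlate microplates using a proprietary coating. Each well got 19.5 μl buffer, then 0.5 μl of DMSO, reference ligand, or compound. Adding 5 μl of [125I]-Urotensin II, diluted to 5× final concentration in binding buffer, started binding. Plates were sealed with TopSeal-A and incubated 1 hour at room temperature in the dark. Wells were counted for 30 seconds each on a TopCount after a 60-second delay, and percentage inhibition was calculated.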

T1 sequence (P35372 whole entry): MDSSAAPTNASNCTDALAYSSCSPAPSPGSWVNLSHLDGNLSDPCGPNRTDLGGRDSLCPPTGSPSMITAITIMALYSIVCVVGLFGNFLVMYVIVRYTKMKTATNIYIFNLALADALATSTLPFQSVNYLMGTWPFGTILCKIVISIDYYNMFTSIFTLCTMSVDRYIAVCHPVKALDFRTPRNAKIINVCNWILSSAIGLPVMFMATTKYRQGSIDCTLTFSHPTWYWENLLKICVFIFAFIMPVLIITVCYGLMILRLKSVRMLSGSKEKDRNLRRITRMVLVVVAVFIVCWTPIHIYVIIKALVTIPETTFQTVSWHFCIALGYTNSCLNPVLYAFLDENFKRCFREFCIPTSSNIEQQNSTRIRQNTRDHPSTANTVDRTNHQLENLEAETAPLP

Compound: CO[C@H]1[C@H](O)[C@@H](COCc2cccc(O)c2)OC(OCc2ccc(-c3ccccc3)cc2)[C@@H]1NC(=O)CCNC(=N)N (stereo partly drawn) [compound 147]
- A7 radioligand binding, percentage inhibition (Human μ-opioid (MOP)): + (“+” indicates greater than 50% inhibition at 10 μM)
- A9 radioligand binding, percentage inhibition [1]: − (“−” indicates less than 50% inhibition at 10 μM)
- A10 radioligand binding, percentage inhibition (Human opioid (ORL1)): − (“−” indicates less than 50% inhibition at 10 μM)
- A6 radioligand binding, percentage inhibition ([2]; [125I]-S36057): + (“+” indicates greater than 50% inhibition at 10 μM)
- A2 radioligand binding, percentage inhibition (Human κ-Opioid (KOP)): + (“+” indicates greater than 50% inhibition at 10 μM)
- A5 radioligand binding, percentage inhibition (Human melanocortin (MC5)): + (“+” indicates greater than 50% inhibition at 10 μM)
- A8 radioligand binding, percentage inhibition (Human neurokinin (NK1)): + (“+” indicates greater than 50% inhibition at 10 μM)
- A4 radioligand binding, percentage inhibition (Human Melanocortin (MC4)): + (“+” indicates greater than 50% inhibition at 10 μM)
- A3 radioligand binding, percentage inhibition (Human Melanocortin (MC3)): − (“−” indicates less than 50% inhibition at 10 μM)
- A1 radioligand binding, percentage inhibition (Human δ-opioid (DOP)): − (“−” indicates less than 50% inhibition at 10 μM)
- A11 radioligand binding, percentage inhibition (Mouse urotensin (mUR2)): − (“−” indicates less than 50% inhibition at 10 μM)

Compound: COCC1OC(OCCc2ccccc2)C(NC(=O)CN)C(OCc2ccc(-c3ccccc3)cc2)C1O (stereo not drawn) [compound 224]
- A7: inhibition of radioligand binding (Human μ-opioid (MOP); FlashPlate): − (“−” indicates less than 50% inhibition at 10 μM)
- A9: inhibition of radioligand binding ([1]; FlashPlate): − (“−” indicates less than 50% inhibition at 10 μM)
- A10: inhibition of radioligand binding (Human opioid (ORL1); FlashPlate): − (“−” indicates less than 50% inhibition at 10 μM)
- A6: inhibition of radioligand binding ([2]; [125I]-S36057, FlashPlate): − (“−” indicates less than 50% inhibition at 10 μM)
- A2: inhibition of radioligand binding (Human κ-Opioid (KOP); filtration): − (“−” indicates less than 50% inhibition at 10 μM)
- A5: inhibition of radioligand binding (Human melanocortin (MC5); FlashPlate): − (“−” indicates less than 50% inhibition at 10 μM)
- A8: inhibition of radioligand binding (Human neurokinin (NK1); filtration): + (“+” indicates greater than 50% inhibition at 10 μM)
- A4: inhibition of radioligand binding (Human Melanocortin (MC4); FlashPlate): − (“−” indicates less than 50% inhibition at 10 μM)
- A3: inhibition of radioligand binding (Human Melanocortin (MC3); FlashPlate): − (“−” indicates less than 50% inhibition at 10 μM)
- A1: inhibition of radioligand binding (Human δ-opioid (DOP); FlashPlate): − (“−” indicates less than 50% inhibition at 10 μM)
- A11: inhibition of radioligand binding (Mouse urotensin (mUR2); FlashPlate): − (“−” indicates less than 50% inhibition at 10 μM)

Compound: CSC1OC(COCc2ccc3ccccc3c2)C(O)C(OCc2ccc3ccccc3c2)C1NC(=O)CN (stereo not drawn) [compound 316]
- A7: inhibition of radioligand binding, human μ-opioid (MOP) (Human μ-opioid (MOP)): − (“−” indicates less than 50% inhibition at 10 μM)
- A9: inhibition of radioligand binding, human neuropeptide Y (NPY-Y1) [1]: − (“−” indicates less than 50% inhibition at 10 μM)
- A10: inhibition of radioligand binding, human opioid (ORL1) (Human opioid (ORL1)): − (“−” indicates less than 50% inhibition at 10 μM)
- A6: inhibition of radioligand binding, human melanin-concentrating hormone (MCH1) ([2]; [125I]-S36057): − (“−” indicates less than 50% inhibition at 10 μM)
- A2: inhibition of radioligand binding, human κ-opioid (KOP) (Human κ-Opioid (KOP)): − (“−” indicates less than 50% inhibition at 10 μM)
- A5: inhibition of radioligand binding, human melanocortin (MC5) (Human melanocortin (MC5)): − (“−” indicates less than 50% inhibition at 10 μM)
- A8: inhibition of radioligand binding, human neurokinin (NK1) (Human neurokinin (NK1)): + (“+” indicates greater than 50% inhibition at 10 μM)
- A4: inhibition of radioligand binding, human melanocortin (MC4) (Human Melanocortin (MC4)): + (“+” indicates greater than 50% inhibition at 10 μM)
- A3: inhibition of radioligand binding, human melanocortin (MC3) (Human Melanocortin (MC3)): − (“−” indicates less than 50% inhibition at 10 μM)
- A1: inhibition of radioligand binding, human δ-opioid (DOP) (Human δ-opioid (DOP)): − (“−” indicates less than 50% inhibition at 10 μM)
- A11: inhibition of radioligand binding, mouse urotensin (mUR2) (Mouse urotensin (mUR2)): − (“−” indicates less than 50% inhibition at 10 μM)
